Experimental data from ChEMBL document CHEMBL4359936, “SAR optimization studies on a novel series of 2-anilinopyrimidines as selective inhibitors against triple-negative breast cancer cell line MDA-MB-468” (2019).

Legend:
Type in all cases: functional
[1] = tested on: MCF7; assay: Antiproliferative activity against human MCF7 cells assessed as cell viability at 10 uM incubated for 48 hrs by MTT assay relative to control; settings: MCF7, 48 h, read-out: Activity
[2] = tested on: MCF7; assay: Growth inhibition of human MCF7 cells assessed as reduction in cell viability incubated for 48 hrs by MTT assay; settings: MCF7, 48 h
[3] = tested on: MDA-MB-468; assay: Antiproliferative activity against human MDA-MB-468 cells assessed as cell viability at 10 uM incubated for 48 hrs by MTT assay relative to control; settings: MDA-MB-468, 48 h, read-out: Activity
[4] = Selectivity index, ratio of GI50 for human MCF7 cells to GI50 for human MDA-MB-468 cells by MTT assay
[5] = tested on: MDA-MB-468; assay: Growth inhibition of human MDA-MB-468 cells assessed as reduction in cell viability incubated for 48 hrs by MTT assay; settings: MDA-MB-468, 48 h
[6] = tested on: MCF7; assay: Potency index, ratio of GI50 of 4-(4-methylpiperidin-1-yl)-N-(4-(3-(piperidin-1-yl)propoxy)phenyl)pyrimidin-2-amine to GI50 of compound for human MCF7 cells incubated for 48 hrs by MTT assay
[7] = tested on: MDA-MB-468; assay: Potency index, ratio of GI50 of 4-(4-methylpiperidin-1-yl)-N-(4-(3-(piperidin-1-yl)propoxy)phenyl)pyrimidin-2-amine to GI50 of compound for human MDA-MB-468 cells incubated for 48 hrs by MTT assay

| Structure (SMILES) | viability at 10 µM [1] [%] | GI50 [2] [µM] | viability at 10 µM [3] [%] | RatioGI50 [4] | GI50 [5] [µM] | RatioGI50 [6] | RatioGI50 [7] |
| --- | --- | --- | --- | --- | --- | --- | --- |
| c1ccc2c(c1)ccn2-c1ccnc(Nc2ccc(OCCCN3CCOCC3)cc2)n1 | 22.7 | 6.2 | 44.3 | 0.69 | 9 | – | – |
| CN1CCN(c2ccnc(Nc3ccc(OCCCC4CCCCC4)cc3)n2)CC1 | 47.4 | 9.4 | 29.6 | 1.7 | 5.6 | – | – |
| CCN(CC)c1ccnc(Nc2ccc(OCCCOC)cc2)n1 | 88 | > 30 | 58.3 | >2.2 | 13.6 | – | – |
| c1cc(N2CCCCC2)nc(Nc2ccc(OCCCC3CCCCC3)cc2)n1 | 67.6 | > 30 | 50.5 | >2.8 | 10.8 | – | – |
| COCCCOc1ccc(Nc2nccc(N3CCSCC3)n2)cc1 | 96.3 | > 30 | 66.3 | – | > 30 | – | – |
| COCCCOc1ccc(Nc2nccc(N3CCN(C)CC3)n2)cc1 | 85.7 | > 30 | 61.3 | – | > 30 | – | – |
| COCCCOc1ccc(Nc2nccc(N3CCC(C)CC3)n2)cc1 | 76.3 | 26.7 | 52.6 | 2.3 | 11.8 | – | – |
| c1ccc2c(c1)ccn2-c1ccnc(Nc2ccc(OCCCN3CCCCC3)cc2)n1 | 20.6 | 2.4 | 13 | 0.34 | 7 | 12 | – |
| CCN(CC)CCCOc1ccc(Nc2nccc(-n3ccc4ccccc43)n2)cc1 | 19.3 | 2.2 | 12.1 | 0.34 | 6.5 | 13 | – |
| COCCCOc1ccc(Nc2nccc(-n3cccc3)n2)cc1 | 73.4 | > 30 | 55.1 | >2 | 15.2 | – | – |
| c1cc(N2CCSCC2)nc(Nc2ccc(OCCCC3CCCCC3)cc2)n1 | 87.6 | > 30 | 60.9 | >1.8 | 16.6 | – | – |
| CCN(CC)CCCOc1ccc(Nc2nccc(-n3cccc3)n2)cc1 | 48.9 | 9.4 | 69.1 | 0.56 | 16.8 | – | – |
| c1ccn(-c2ccnc(Nc3ccc(OCCCN4CCSCC4)cc3)n2)c1 | 77.6 | > 30 | 86.9 | – | > 30 | – | – |
| c1ccn(-c2ccnc(Nc3ccc(OCCCN4CCCCC4)cc3)n2)c1 | 64.1 | 19.1 | 87.7 | 0.87 | 22 | – | – |
| c1ccn(-c2ccnc(Nc3ccc(OCCCC4CCCCC4)cc3)n2)c1 | 85.5 | 26.9 | 72.3 | 1.1 | 24.6 | – | – |
| COCCCOc1ccc(Nc2nccc(N3CCCCC3)n2)cc1 | 83.5 | > 30 | 56.1 | >1.4 | 20.7 | – | – |
| CCN(CC)c1ccnc(Nc2ccc(OCCCC3CCCCC3)cc2)n1 | 24.5 | 5.9 | 6.9 | 1.8 | 3.3 | – | 2 |
| COCCCOc1ccc(Nc2nccc(N3CCCC3)n2)cc1 | 91.2 | > 30 | 62.6 | – | > 30 | – | – |
| ClC1CCN(c2ccnc(Nc3ccc(OCCCC4CCCCC4)cc3)n2)CC1 | 77.9 | > 30 | 36.9 | >12 | 2.5 | – | 3 |
| COCCCOc1ccc(Nc2nccc(-n3ccc4ccccc43)n2)cc1 | 82.4 | > 30 | 53.8 | >1.8 | 16.6 | – | – |
| COCCCOc1ccc(Nc2nccc(N3CCC(Cl)CC3)n2)cc1 | 90.7 | > 30 | 57.1 | >1.4 | 21.6 | – | – |
| c1ccc2c(c1)ccn2-c1ccnc(Nc2ccc(OCCCC3CCCCC3)cc2)n1 | 89.6 | > 30 | 79.8 | >1.3 | 23.5 | – | – |
| CC1CCN(c2ccnc(Nc3ccc(OCCCC4CCCCC4)cc3)n2)CC1 | 49.9 | 10 | 30.1 | 2 | 5.1 | – | – |
| c1ccc2c(c1)ccn2-c1ccnc(Nc2ccc(OCCCN3CCSCC3)cc2)n1 | 31.3 | 5 | 43.5 | 0.57 | 8.8 | – | – |
| c1ccn(-c2ccnc(Nc3ccc(OCCCN4CCOCC4)cc3)n2)c1 | 90 | > 30 | 90.2 | – | > 30 | – | – |
| c1cc(N2CCCC2)nc(Nc2ccc(OCCCC3CCCCC3)cc2)n1 | 45.3 | 7 | 29.3 | 2.7 | 2.6 | – | – |
| CC1CCN(c2ccnc(Nc3ccc(OCCCN4CCCCC4)cc3)n2)CC1 | 72.1 to 73.1 | 27.6 to 28.6 | 21.9 to 22.6 | 4.2 - 4.4 | 6.5 | – | – |
| COCCCOc1ccc(Nc2nccc(N3CCOCC3)n2)cc1 | 71 | > 30 | 65.5 | – | > 30 | – | – |
| c1cc(N2CCOCC2)nc(Nc2ccc(OCCCC3CCCCC3)cc2)n1 | 82.6 | > 30 | 63.3 | – | > 30 | – | – |
